The text below walks through data of US12383544B2, “Methods for the treatment of polycystic kidney disease” (Galapagos NV, priority 2019, dated 2025).

Read-outs that look alike come from different tables or passages of the source.

As a reminder, the EC50 is the concentration giving half of the maximal effect. As usually defined, the IC50 is the concentration that gives 50% inhibition.

Format in all cases: cell-based
The target in assay [1] is T1, wild type mouse CFTR (Mus musculus, UniProt P26361).
T1 construct: expressed in transfected cells; host or cells: mouse mIMCD3_wt cells (ATCC CRL-2123)
T1 sequence (P26361 whole entry): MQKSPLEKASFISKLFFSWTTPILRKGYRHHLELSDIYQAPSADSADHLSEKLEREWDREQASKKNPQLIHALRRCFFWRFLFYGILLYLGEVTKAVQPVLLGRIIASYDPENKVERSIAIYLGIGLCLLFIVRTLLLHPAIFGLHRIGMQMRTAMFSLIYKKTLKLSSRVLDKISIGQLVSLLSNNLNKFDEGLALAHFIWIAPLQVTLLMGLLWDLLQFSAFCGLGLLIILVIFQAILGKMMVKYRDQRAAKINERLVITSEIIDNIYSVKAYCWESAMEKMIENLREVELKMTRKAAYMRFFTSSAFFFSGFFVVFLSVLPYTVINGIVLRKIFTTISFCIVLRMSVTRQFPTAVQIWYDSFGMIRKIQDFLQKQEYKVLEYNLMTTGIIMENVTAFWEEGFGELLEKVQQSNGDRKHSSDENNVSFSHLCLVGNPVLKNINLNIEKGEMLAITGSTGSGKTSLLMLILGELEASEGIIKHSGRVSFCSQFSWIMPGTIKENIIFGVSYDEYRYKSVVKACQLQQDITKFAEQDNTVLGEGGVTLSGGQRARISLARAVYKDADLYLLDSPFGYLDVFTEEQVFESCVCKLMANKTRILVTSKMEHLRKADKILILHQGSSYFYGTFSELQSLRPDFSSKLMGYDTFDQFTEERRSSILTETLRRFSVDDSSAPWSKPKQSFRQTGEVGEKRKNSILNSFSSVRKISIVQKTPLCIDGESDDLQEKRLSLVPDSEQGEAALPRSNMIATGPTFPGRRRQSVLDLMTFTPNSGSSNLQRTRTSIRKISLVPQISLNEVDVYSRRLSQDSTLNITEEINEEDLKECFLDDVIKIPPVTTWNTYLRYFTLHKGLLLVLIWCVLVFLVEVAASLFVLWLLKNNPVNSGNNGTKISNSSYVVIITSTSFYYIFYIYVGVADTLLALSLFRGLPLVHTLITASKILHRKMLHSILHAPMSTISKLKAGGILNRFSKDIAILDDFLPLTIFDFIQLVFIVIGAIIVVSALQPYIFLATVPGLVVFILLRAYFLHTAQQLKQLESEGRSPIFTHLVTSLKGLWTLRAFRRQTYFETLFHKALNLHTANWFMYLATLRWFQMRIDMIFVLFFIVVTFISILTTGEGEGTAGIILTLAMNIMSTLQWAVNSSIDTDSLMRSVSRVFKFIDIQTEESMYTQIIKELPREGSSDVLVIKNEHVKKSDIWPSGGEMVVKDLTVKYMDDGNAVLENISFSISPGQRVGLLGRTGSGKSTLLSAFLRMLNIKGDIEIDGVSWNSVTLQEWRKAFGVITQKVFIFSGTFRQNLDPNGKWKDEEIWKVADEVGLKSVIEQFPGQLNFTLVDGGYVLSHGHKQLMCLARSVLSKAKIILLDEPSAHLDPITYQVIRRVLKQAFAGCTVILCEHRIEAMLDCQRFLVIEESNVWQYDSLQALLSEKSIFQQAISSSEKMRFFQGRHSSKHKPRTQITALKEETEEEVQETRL
Description: YFP halide (YHA) assay in mIMCD3_wt cells, Cpd 1 with Metformin. On the procedure:
To evaluate the ability of a test compound combination to inhibit wild type CFTR using tubular kidney cells, a YFP halide assay using mIMCD3_wt cells (ATCC® CRL-2123) transfected with wild type mouse CFTR was developed (Galietta, Jayaraman, and Verkman 2001). Cells were incubated during 24 h with a dose range of compound 1 or a combination of a dose range of compound 1 with increasing dose of Metformin Immediately before measurement, forskolin together with a dose range of compound 1 combined or not with increasing dose of Metformin was added the wild type CFTR expressing mIMCD3 cells in order to fully activate the available CFTR at the plasma membrane. Inhibition of the channel by test compounds was plotted to obtain IC50s.
Mouse mIMCD3_wt cells were transfected with 20 ng of wild type CFTR and 80 ng of plasmid encoding YFP (H148Q/I152L/F47L) using jetPEI (Polyplus transfection). Directly after transfection, cells were seeded in black 96-well plates coated with Poly-D-lysine at a density of 40,000 cells per well. The next day, cells were treated with compounds for 24 h. After this incubation period, cells were washed twice with DPBS with Ca^2+ and Mg^2+. Subsequently, cells were treated with 10 μM forskolin and the desired concentrations of compounds in a volume of 40 μl and incubated at room temperature for 15 min, a time point optimized in previous experiments resulting in a good window (positive control/negative control>2) and signal to background ratio. YFP fluorescence was measured using an EnVision plate reader (PerkinElmer). […] The excitation wavelength was 485 nm and the emission wavelength 530 nm.
Concentration-response experiments were fitted using a 4 parameter hill function of the form Response=Bottom+(Top−Bottom)/(1+(EC50/concentration)^HillSlope)) to determine EC50 values.

Assay [2] has as its system Pkd1-KO mouse-inner medullary collecting duct cells (mIMRFNPKD 5E4). Description: 3D mice cyst assay. The settings on record: 10 μM; 72 h; forskolin. On the procedure:
This assays uses PKD1−/− knocked-down medullary mouse duct cells which form small cysts. This cysts are then further stimulated with forskolin causing their expansion. Test compounds are then added with additional forskolin in order to evaluate their ability to counteract cysts formation. After 3 days, these cells are imaged, to measure in particular cyst size, cell number, nucleus shape, wall thickness.
The 3D cyst culture assay has been performed with Pkd1-KO mouse-inner medullary collecting duct cells (m[…] 5E4) cells as described previously. (Booij et al. 2017) In short: m[…] 5.10^4 cells were mixed with Cyst-Gel (OcellO B. V., Oortweg 21, Leiden, 2333CH, Netherlands). 15 μL of cell-gel mix was pipetted to 384-well plates (Greiner μClear, Greiner Bio-One B.V.) using a CyBio Felix 96/60 robotic liquid dispenser (Analyik Jena A G). Gel-cell mix was plated at a final cell density of 2250 cells per well. After gel polymerization at 37° C. for 30 min, 33 μL culture medium was added to each well. Cells were grown in gel for 96 h, after which the cells were co-exposed with forskolin (Calbiochem) and the following molecules: Rapamycin (SelleckChem, S1039), Staurosporin (SelleckChem, 51421) were used as cyst inhibiting or toxic control respectively. Test compounds were tested in the 3D assay at the indicated final concentrations. […]

In assay [3] the target is T2, wild type human CFTR (Homo sapiens, UniProt P13569).
T2 construct: expressed in transfected cells; host or cells: HEK293
T2 sequence (P13569 whole entry): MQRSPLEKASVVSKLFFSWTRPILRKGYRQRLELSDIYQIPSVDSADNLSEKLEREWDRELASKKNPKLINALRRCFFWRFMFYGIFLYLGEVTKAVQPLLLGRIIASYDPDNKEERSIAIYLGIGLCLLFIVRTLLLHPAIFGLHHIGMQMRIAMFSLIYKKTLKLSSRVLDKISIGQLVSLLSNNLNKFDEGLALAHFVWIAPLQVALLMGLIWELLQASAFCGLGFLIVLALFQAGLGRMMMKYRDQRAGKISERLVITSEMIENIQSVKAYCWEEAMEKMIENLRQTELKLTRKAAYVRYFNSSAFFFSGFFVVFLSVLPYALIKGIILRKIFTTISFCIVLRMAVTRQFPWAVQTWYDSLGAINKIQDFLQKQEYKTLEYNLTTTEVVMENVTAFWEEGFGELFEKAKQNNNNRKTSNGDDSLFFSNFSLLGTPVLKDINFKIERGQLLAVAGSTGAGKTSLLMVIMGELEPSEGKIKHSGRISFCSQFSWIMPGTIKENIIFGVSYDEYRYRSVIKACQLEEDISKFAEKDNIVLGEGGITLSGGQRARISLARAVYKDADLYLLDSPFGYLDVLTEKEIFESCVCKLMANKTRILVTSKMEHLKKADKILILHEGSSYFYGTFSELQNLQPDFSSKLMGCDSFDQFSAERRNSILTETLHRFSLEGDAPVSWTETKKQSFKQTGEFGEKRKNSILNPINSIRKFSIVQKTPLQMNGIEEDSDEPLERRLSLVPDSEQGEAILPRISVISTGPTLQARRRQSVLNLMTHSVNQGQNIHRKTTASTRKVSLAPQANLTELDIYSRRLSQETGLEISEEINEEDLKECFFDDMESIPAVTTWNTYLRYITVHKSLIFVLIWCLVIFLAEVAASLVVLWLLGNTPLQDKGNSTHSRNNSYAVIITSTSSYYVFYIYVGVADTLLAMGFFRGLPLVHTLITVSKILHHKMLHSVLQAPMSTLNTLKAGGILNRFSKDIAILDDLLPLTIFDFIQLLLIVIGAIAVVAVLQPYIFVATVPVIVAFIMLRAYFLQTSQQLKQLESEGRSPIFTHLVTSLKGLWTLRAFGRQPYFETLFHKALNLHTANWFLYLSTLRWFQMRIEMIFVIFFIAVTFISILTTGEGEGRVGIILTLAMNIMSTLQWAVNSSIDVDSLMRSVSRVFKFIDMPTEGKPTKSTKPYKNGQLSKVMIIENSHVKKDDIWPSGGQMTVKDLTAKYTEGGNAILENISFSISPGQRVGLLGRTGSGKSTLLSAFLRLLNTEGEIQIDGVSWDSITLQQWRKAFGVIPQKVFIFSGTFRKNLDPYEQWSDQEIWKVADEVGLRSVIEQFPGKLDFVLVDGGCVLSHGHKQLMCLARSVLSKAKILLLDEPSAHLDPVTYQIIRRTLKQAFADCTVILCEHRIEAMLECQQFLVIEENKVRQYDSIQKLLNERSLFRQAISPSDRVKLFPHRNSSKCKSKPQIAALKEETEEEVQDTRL
Briefly: Yellow Fluorescent Protein (YFP) halide assay in wild type CFTR (HEK293 cells). The conditions noted are these: HEK293 cells transfected with wild type human CFTR; 24 h incubation; 10 μM forskolin; read-out: EC50 of inhibition of WT CFTR. Here is the method: To evaluate the ability of a test compound to inhibit wild type CFTR, a YFP halide assay using HEK293 cells transfected with wild type human CFTR was developed. (Galietta, Jayaraman, and Verkman 2001) Cells were incubated during 24 h with a dose range of test compound and the resulting wild type CFTR activity was plotted to obtain the EC50.
Test compounds were also added together with forskolin to wild type CFTR expressing cells in order to fully active the available CFTR at the plasma membrane and determine accurately the inhibition of the channel activity.
HEK293 cells were transfected with 10 to 80 ng of wild type CFTR and 20 ng of plasmid encoding YFP (H148Q/I152L/F47L) using jetPEI (Polyplus transfection). Directly after transfection, cells were seeded in black 96-well plates coated with Poly-D-lysine at a density of 70,000 cells per well. The next day, cells were treated with corrector(s) for 24 h. After this incubation period, cells were washed twice with DPBS with Ca^2+ and Mg^2+. Subsequently, cells were treated with 10 μM forskolin and the desired concentration of potentiator in a volume of 40 μl and incubated at room temperature for 10 min, a time point optimized in previous experiments resulting in a good window (positive control/negative control >2) and signal to background ratio. YFP fluorescence was measured using an EnVision plate reader (PerkinElmer). […]

As to `COC1CCN(C2CCN(c3cc(C(=O)NS(=O)(=O)N(C)C)nc4c3c(C3CCC3)nn4-c3ccc(F)cc3)CC2)CC1` [Cpd 1], the EC50 in assay [1] (Compound 1 alone at 30 μM, mouse mIMCD3_wt cells, read-out: EC50 of inhibition of mouse CFTR activity) came to 3120 nM; in assay [3], 728 nM. In addition, the half-maximal inhibitory concentration (IC50) was 3120 nM in assay [1] ([Metformin] 0 μM, mIMCD3_wt cells, read-out: IC50); 3670 nM in assay [1] ([Metformin] 20 μM, mIMCD3_wt cells, read-out: IC50); 2320 nM in assay [1] ([Metformin] 40 μM, mIMCD3_wt cells, read-out: IC50); 3790 nM in assay [1] ([Metformin] 80 μM, mIMCD3_wt cells, read-out: IC50); 2910 nM in assay [1] ([Metformin] 160 μM, mIMCD3_wt cells, read-out: IC50); 1910 nM in assay [1] ([Metformin] 310 μM, mIMCD3_wt cells, read-out: IC50). Besides, the IC50 turned out to be 1770 nM in assay [1] ([Metformin] 630 μM, mIMCD3_wt cells, read-out: IC50); 1820 nM in assay [1] ([Metformin] 1250 μM, mIMCD3_wt cells, read-out: IC50); 830 nM in assay [1] ([Metformin] 2500 μM, mIMCD3_wt cells, read-out: IC50); 920 nM in assay [1] (combined with 5 μM of Metformin, mouse mIMCD3 cells, read-out: IC50 of inhibition of mouse CFTR). For the same compound, the “cyst swelling compared to vehicle (set at 100%)” value in assay [2] amounted to 14.5%. In assay [2], the “reduction in cyst swelling” value came to 85.5%.
